Each structure is given as a SMILES string. Values after ≈ are worked out from the molar mass of the structure shown.

The conditions of this series: buffer; pH 7.4; 200.0 µM.
`Cc1ccc2[nH]c(=O)c(CC(=O)O)c(-c3ccccc3)c2c1`: the solubility (kinetic) was > 44 µg/mL.

With `O=C1C(Cc2ccc(O)cc2)NC(=S)N1C1CCCCC1` (centres undefined), the kinetic solubility was found to be 44.9 µg/mL (≈ 147 µM).

The molecule `N#C/C(=C\c1cn(CC(=O)O)c2ccccc12)C(=O)NCc1ccccc1` returned a solubility (kinetic) of 48.9 µg/mL (≈ 136 µM).

As for `Cc1nn(C)c(=O)n1-c1ccccc1`, the kinetic solubility was > 28.4 µg/mL.

Turning to `Cc1cc(SCC(=O)N(C)C2CCCCC2)nc2ccccc12`, the kinetic solubility is 19.4 µg/mL (≈ 59.1 µM).

In the case of `CCOC(=O)c1sc(Nc2ccc(F)cc2)nc1C`, the solubility (kinetic) is < 0.3 µg/mL.

In the case of `CN1CCN(S(=O)(=O)c2ccc3c(c2)oc(=O)n3C)CC1`, the solubility (kinetic) was > 46.7 µg/mL.

As for `CCOc1ccc(CNCCCSc2ncccn2)cc1`, the solubility (kinetic) is > 45.5 µg/mL.

`ClCC1NCC(c2ccccc2Cl)c2c1[nH]c1ccccc21` (centres undefined) had a kinetic solubility of 19.3 µg/mL (≈ 58.3 µM).

As to `COc1ccccc1C1=NOC(COC(=O)c2ccc([N+](=O)[O-])cc2)C1` (centres undefined), the solubility (kinetic) is < 0.4 µg/mL.

The molecule `Cc1ccc(SC(C)C(=O)N2CCN(c3ccccc3)CC2)cc1` (centres undefined) gave a solubility (kinetic) of 34.9 µg/mL (≈ 102 µM).

`Cl.O=C(NC12CC3CC(CC(C3)C1)C2)OC1CN2CCC1CC2` (centres undefined): the kinetic solubility came to 47.7 µg/mL.

For the molecule `COc1ccc(CCNC(=O)Nc2ccc3c(c2)OCO3)cc1OC`, the kinetic solubility was 5.3 µg/mL (≈ 15.4 µM).

In the case of `O=C(NCCc1ccc(F)cc1)C1CCCO1` (centres undefined), the solubility (kinetic) came to 27.6 µg/mL (≈ 116 µM).

The molecule `CNC(=O)C12CC3CC(C1)CC(c1ccc(C)cc1)(C3)C2` came in with a solubility (kinetic) of 31.8 µg/mL (≈ 112 µM).

As to `C=CCNC(=O)NC(=O)c1csc([N+](=O)[O-])c1`, the kinetic solubility is 2 µg/mL (≈ 7.84 µM).

`CN1CCN(C(=O)C2CC(=O)N(c3ccc(Cl)cc3)C2)CC1` (centres undefined) came in with a kinetic solubility of 42.7 µg/mL (≈ 133 µM).

Regarding `Cc1ccc(C(=O)NCCCc2ccccc2)c(Cl)c1`, the kinetic solubility was 31.9 µg/mL (≈ 111 µM).

For `O=C(CCl)Nc1ccc(S(=O)(=O)NC2=NCCCCC2)cc1`, the solubility (kinetic) is > 51.6 µg/mL.

`Cc1ccc(NC(=O)C2CCN(S(=O)(=O)c3cc([N+](=O)[O-])ccc3Cl)CC2)nc1` showed a kinetic solubility of 16 µg/mL (≈ 36.5 µM).

For `CC(=O)Nc1ccc2sc(C)nc2c1`, the kinetic solubility is > 30.9 µg/mL.

`O=C(c1ccc(Oc2cc(Cl)cc(Cl)c2)o1)N1CCCCC1`: the solubility (kinetic) worked out at 7.7 µg/mL (≈ 22.6 µM).

On to `COc1ccc(CCNC(=O)CSCC(=O)Nc2cc(S(C)(=O)=O)ccc2Cl)cc1`, for which the kinetic solubility came to 18.6 µg/mL (≈ 39.5 µM).

`CC(=O)Nc1ccc(S(=O)(=O)N(C)CC(=O)OCC(=O)c2ccc[nH]2)cc1`: the kinetic solubility was > 59 µg/mL.

The molecule `CC(C#N)Sc1ncnc2sc(-c3ccccc3)cc12` (centres undefined) displayed a kinetic solubility of 0.8 µg/mL (≈ 2.69 µM).

With `O=[N+]([O-])c1cccc2nc(-c3ccccc3)c(-c3ccccc3)nc12`, the kinetic solubility was < 0.2 µg/mL.

Consider `Cc1ccc(C(=O)CCC(=O)Nc2ccc(C)cn2)cc1`, for which the solubility (kinetic) came to 3.4 µg/mL (≈ 12 µM).

The molecule `CCOc1ccccc1NC(=O)c1ccc2[nH]c(C)c(C)c2c1` gave a solubility (kinetic) of 2.8 µg/mL (≈ 9.08 µM).

On to `O=C(Nc1ccccc1C(F)(F)F)N1CCCC1c1cccnc1` (centres undefined), for which the solubility (kinetic) was > 50.3 µg/mL.

`Cn1c(C(=O)c2ccccc2[N+](=O)[O-])nc2ccccc21`: the kinetic solubility was 36.1 µg/mL (≈ 128 µM).

`Cc1ccnc(NS(=O)(=O)c2ccc3ccccc3c2)n1` registered a kinetic solubility of 28.1 µg/mL (≈ 93.9 µM).

Consider `CN(C)/C(=N\O)c1c(Cl)cccc1Cl`, for which the kinetic solubility was > 35 µg/mL.

In turn, `Cc1ccc(C)c(OCCC(=O)Nc2cc(S(=O)(=O)N3CCCCC3)ccc2C)c1` returned a solubility (kinetic) of 2.4 µg/mL (≈ 5.57 µM).

`Cc1cnc(NC(=O)Cc2ccc(Br)cc2)s1`: the solubility (kinetic) is < 0.3 µg/mL.

For `Cc1cccc(NC(=O)CCN2CCCC(C)C2)c1.Cl` (centres undefined), the solubility (kinetic) is > 44.5 µg/mL.

Turning to `Fc1ccccc1-c1nc2ncccc2o1`, the kinetic solubility came out at 31 µg/mL (≈ 145 µM).

Take `CCOc1ccccc1NC(=O)Nc1ccc(CC#N)cc1`: the solubility (kinetic) worked out at 37.8 µg/mL (≈ 128 µM).

With `CN(C)c1ccc(/C=C2\C(=O)NC(=O)N(CCc3ccc(F)cc3)C2=O)cc1`, the solubility (kinetic) worked out at 11.2 µg/mL (≈ 29.4 µM).

Regarding `Cc1c(Cl)cnc(NC(=O)COC(=O)[C@@H](NC(=O)c2ccco2)C(C)C)c1Cl`, the solubility (kinetic) was > 64.2 µg/mL.

Consider `Cc1ccc(C(=O)NCCCNC(=O)c2ccccc2F)cn1`, for which the solubility (kinetic) worked out at 44.1 µg/mL (≈ 140 µM).

For the molecule `O=C(Nc1cccc([N+](=O)[O-])c1)C1COc2ccccc2O1` (centres undefined), the kinetic solubility turned out to be 5.4 µg/mL (≈ 18 µM).

Take `O=C(NC(=S)NCc1ccco1)c1cccc(Cl)c1`: the solubility (kinetic) worked out at 2.7 µg/mL (≈ 9.16 µM).

Regarding `CCOCC(=O)N1CCN(Cc2ccc3c(c2)OCO3)CC1`, the solubility (kinetic) is > 46 µg/mL.

`C=CCN1C(=O)C2(OCCCO2)c2cc(CCCC)ccc21`: the solubility (kinetic) was 4.5 µg/mL (≈ 14.9 µM).

`CCOC(=O)COc1ccccc1/C=C1\NC(=O)NC1=O`: the solubility (kinetic) worked out at 33 µg/mL (≈ 114 µM).

On to `COc1ccc(-c2cc(C(=O)Nc3cc(C)on3)no2)cc1`, for which the solubility (kinetic) is < 0.2 µg/mL.

`CCOC(=O)c1cc2c(=O)c3cc(C)ccc3oc2nc1C`: the kinetic solubility was < 0.6 µg/mL.

As to `Cc1ccsc1C(=O)OCC(=O)N1C(C)CCCC1C` (centres undefined), the solubility (kinetic) is > 44.3 µg/mL.

In the case of `O=C(NCC(c1cccs1)N1CCOCC1)c1cc2ccccc2oc1=O` (centres undefined), the kinetic solubility was determined as 10 µg/mL (≈ 26 µM).

For `CS(=O)(=O)N1CCN(c2ccc([N+](=O)[O-])cc2C(F)(F)F)CC1`, the solubility (kinetic) turned out to be 39.9 µg/mL (≈ 113 µM).

Consider `COc1ccc(NC(=O)c2cnc(SC)nc2)cc1`, for which the solubility (kinetic) amounted to 8.4 µg/mL (≈ 30.5 µM).

Turning to `Cc1ccc(CNC(=O)Cc2cn(C)c3ccccc23)cc1`, the solubility (kinetic) was 2.2 µg/mL (≈ 7.52 µM).

`O=C(Nc1ccc(NC(=O)c2cccs2)cc1)c1cccs1` yielded a kinetic solubility of 0.9 µg/mL (≈ 2.74 µM).

Take `Nc1ccc(CCc2ccc(N)cc2)cc1`: the solubility (kinetic) was 22 µg/mL (≈ 104 µM).

For the molecule `O=C(Cc1ccc(Cl)cc1)N1CCOCC1`, the kinetic solubility was > 36 µg/mL.

With `O=C(NCCNC(=O)c1cc(Cl)ccc1Cl)c1ccccn1`, the solubility (kinetic) is > 50.7 µg/mL.

Turning to `Cc1cccc(OCCCC(=O)Nc2nccs2)c1C`, the solubility (kinetic) is 1.5 µg/mL (≈ 5.17 µM).

Consider `CSc1ncccc1C(=O)OCc1ccccc1Cl`, for which the solubility (kinetic) was < 0.6 µg/mL.

`CN(C)C(=O)Oc1ccc2c(c1)O/C(=C\c1ccccc1)C2=O` displayed a kinetic solubility of 0.8 µg/mL (≈ 2.59 µM).

Take `Cc1ccc(C2=Nc3ccccc3N=C(C(Cl)Cl)C2)cc1`: the kinetic solubility is 3.1 µg/mL (≈ 9.77 µM).

As to `Cc1nn(CC(=O)NCCC2=CCCCC2)c(C)c1S(=O)(=O)N(C)C`, the kinetic solubility was > 55.3 µg/mL.

In the case of `O=C(Nc1ccccc1Cl)NC1(C(=O)N2CCC(O)CC2)CCCCC1`, the kinetic solubility is > 57 µg/mL.

The molecule `COc1ccc(N2CCN(CC(=O)c3c[nH]c4ccccc34)CC2)cc1` showed a kinetic solubility of 1.9 µg/mL (≈ 5.44 µM).

As for `O=C(Nc1cc(S(=O)(=O)N2CCOCC2)ccc1N1CCOCC1)c1ccc([N+](=O)[O-])s1`, the solubility (kinetic) was determined as 6.1 µg/mL (≈ 12.6 µM).

Molecule `CCN(CC)c1nc2ccccc2[nH]c1=O` gave a kinetic solubility of 10.7 µg/mL (≈ 49.2 µM).

Take `c1ccc(-c2cccs2)nc1`: the kinetic solubility worked out at 1.9 µg/mL (≈ 11.8 µM).

Molecule `COc1ccccc1N1C(=O)C2C3C=CC(CC3)C2C1=O` (centres undefined) returned a kinetic solubility of 30.7 µg/mL (≈ 108 µM).

Take `Cc1ccc(/C=C/C(=O)NN2CCN(C)CC2)cc1`: the solubility (kinetic) was > 38.9 µg/mL.

The molecule `O=C(Nc1nccs1)c1ccc(Br)cc1` returned a kinetic solubility of 2.2 µg/mL (≈ 7.77 µM).

On to `O=C(COC(=O)c1cnccn1)c1cccc([N+](=O)[O-])c1`, for which the solubility (kinetic) was > 43.1 µg/mL.

Turning to `CC1CC(C)CN(C(=O)/C=C/c2ccc([N+](=O)[O-])s2)C1` (centres undefined), the solubility (kinetic) was 5.8 µg/mL (≈ 19.7 µM).

`CCCCn1c(=S)[nH]c2cc(S(=O)(=O)N3CCOCC3)ccc21`: the kinetic solubility is > 53.3 µg/mL.

For the molecule `O=C(O)CCC(=NNC(=O)c1cccc(S(=O)(=O)N2CCCCC2)c1)c1ccccc1`, the kinetic solubility is > 66.5 µg/mL.

With `CC1=C/C(=N\OS(=O)(=O)c2ccccc2)C(C(C)C)=CC1=O`, the kinetic solubility was > 47.9 µg/mL.

The record behind these values is PubChem BioAssay AID1996.
